Assays:
Bacillus cereus = test: Agar plate disc-diffusion, antibacterial activity (inhibition zone); assay type: cell-based; details: nutrient agar, 37° C., 48 h
Method: (§1) The agar plate disc-diffusion method was applied. […] The discs were then placed onto the surface of agar plates (nutrient agar for bacteria and Sabouraud's dextrose agar for fungi) seeded with the test organism. Each plate contained 15 mL of the agar medium, previously seeded with 0.2 mL of the broth culture of each organism pregrown for 18 hours. The plates were incubated at 37° C. for 48 h, and 72 h for fungi. The inhibition zones were measured in mm. Discs impregnated with DMSO were used as a control, and its inhibition zone was subtracted from the tested compound actual inhibition zone.

Escherichia coli = test: as above; assay type: cell-based; details: nutrient agar, 37° C., 48 h
Method: as §1

Pseudomonas aeruginosa = test: as above; assay type: cell-based; details: nutrient agar, 37° C., 48 h
Method: as §1

Staphylococcus aureus = test: as above; assay type: cell-based; details: nutrient agar, 37° C., 48 h
Method: as §1

Aspergillus flavus = test: Agar plate disc-diffusion, antifungal activity (inhibition zone); assay type: cell-based; details: Sabouraud's dextrose agar, 37° C., 72 h
Method: as §1

[1] = system: Chrysosporium keratinophilum; test: as above; assay type: cell-based; details: Sabouraud's dextrose agar, 37° C., 72 h
Method: as §1

[2] = A = concentration of comp. = 10,000 μL
[3] = B = concentration of comp. = 30,000 μL
[4] = C = concentration of comp. = 50,000 μL

O=C(O)c1ccc(-n2c(-c3ccccc3)nc(-c3ccc(Br)cc3)c2-c2ccc(Br)cc2)cc1 [V, 4-(4,5-bis(4-bromophenyl)-2-phenyl-1H-imidazol-1-yl)benzoic acid]
inhibition zone, Bacillus Cereus, A (Bacillus cereus; [2]): 24 mm
inhibition zone, Bacillus Cereus, B (Bacillus cereus; [3]): 27 mm
inhibition zone, Bacillus Cereus, C (Bacillus cereus; [4]): 39 mm
inhibition zone, Escherichia coli, A (Escherichia coli; [2]): 28 mm
inhibition zone, Escherichia coli, B (Escherichia coli; [3]): 35 mm
inhibition zone, Escherichia coli, C (Escherichia coli; [4]): 50 mm
inhibition zone, Pseudomonas aeruginosa, A (Pseudomonas aeruginosa; [2]): 25 mm
inhibition zone, Pseudomonas aeruginosa, B (Pseudomonas aeruginosa; [3]): 28 mm
inhibition zone, Pseudomonas aeruginosa, C (Pseudomonas aeruginosa; [4]): 44 mm
inhibition zone, Staphylococcus aureus, A (Staphylococcus aureus; [2]): 18 mm
inhibition zone, Staphylococcus aureus, B (Staphylococcus aureus; [3]): 21 mm
inhibition zone, Staphylococcus aureus, C (Staphylococcus aureus; [4]): 31 mm
inhibition zone, Aspergillus flavus, A (Aspergillus flavus; [2]): 23 mm
inhibition zone, Aspergillus flavus, B (Aspergillus flavus; [3]): 27 mm
inhibition zone, Aspergillus flavus, C (Aspergillus flavus; [4]): 33 mm
inhibition zone, Chrysosporium keratinophilum, A [1, 2]: 27 mm
inhibition zone, Chrysosporium keratinophilum, B [1, 3]: 29 mm
inhibition zone, Chrysosporium keratinophilum, C [1, 4]: 48 mm
melting point: 284 °C

Source: US11970460B1, “4-(4,5-bis(4-bromophenyl)-2-phenyl-1H-imidazol-1-yl)benzoic acid as an antimicrobial compound” (KING FAISAL UNIVERSITY, priority 2023, dated 2024)
